{"source": "patent US20050143420A1", "about": "“Methods and compositions for the treatment and management of hemoglobinopathy and anemia” (priority 2003, published 2005)", "key": {"BM-CD34+ cells [1]": {"test_system": "BM-CD34+ cells", "assay": "CD34+ cell differentiation with SCF, Flt3-L, GM-CSF and TNFα; flow cytometry of erythroid markers", "assay_type": "cell-based", "conditions": "0.01-100 μM, six days of culture", "method": "(§1) BM-CD34^+ cells were obtained from Cambrex (East Rutherford, N.J.) and cultured in Iscove's MDM with BIT 95000 (StemCell Technologies, UK) in the presence of stem cell factor (SCF), Flt3-L, granulocyte macrophage-colony stimulating factor (GM-CSF) and TNFα for 6 days. To study the effect of 4-(Amino)-2-(2,6-dioxo(3-piperidyl))-isoindoline-1,3-dione on the generation of dendritic cells, CD34^+ progenitor cells were cultured with or without 4-(Amino)-2-(2,6-dioxo(3-piperidyl))-isoindoline-1,3-dione for a period of 6 days. Phenotypic characterization of the cells for erythroid markers (CD36, CD71, glycophorin A and fetal hemoglobin) was established by flow cytometry after six days of culture. Gene expression was monitored by microarray analysis at day 1, day 3 and day 6 of CD34^+ differentiation (FIG. 1)."}, "[2]": {"assay": "Cardiovascular and respiratory function in anesthetized dogs", "assay_type": "in vivo, Beagle dogs", "method": "The effects of 3-(4-amino-1-oxo-1,3-dihydro-isoindol-2-yl)-piperidine-2,6-dione on cardiovascular and respiratory function are investigated in anesthetized dogs. Two groups of Beagle dogs (2/sex/group) are used. One group receives three doses of vehicle only and the other receives three ascending doses of 3-(4-amino-1-oxo-1,3-dihydro-isoindol-2-yl)-piperidine-2,6-dione (2, 10, and 20 mg/kg). In all cases, doses of 3-(4-amino-1-oxo-1,3-dihydro-isoindol-2-yl)-piperidine-2,6-dione or vehicle are successively administered via infusion through the jugular vein separated by intervals of at least 30 minutes."}, "BM-CD34+ progenitors": {"test_system": "BM-CD34+ progenitors", "assay": "Erythroid differentiation of expanded CD34+ cells with SCF and Epo; flow cytometry and cell counts", "assay_type": "cell-based", "conditions": "6 days", "method": "Differentiation of bone marrow (BM) CD34^+ hematopoietic progenitor cells: BM-CD34^+ progenitors were obtained from Cambrex and cultured in Iscove's MDM with BIT 95000 (serum substitute; StemCell technologies) in the presence of growth factors. During the first 6 days CD34^+ cells were expanded with SCF (100 ng/ml), Flt3-L (100 ng/ml) and IL-3 (20 ng/ml), and then differentiated toward the erythroid lineage by culture in the presence of SCF (50 ng/ml), and Epo (2U or 4U/ml) for 6 days. To study the effect of IMiDs™, CD34^+ progenitors cells were differentiated for a period of 6 days in the presence or absence of 4-(Amino)-2-(2,6-dioxo(3-piperidyl))-isoindoline-1,3-dione or 3-(4-amino-1-oxo-1,3-dihydroisoindol-2-yl)-piperidine-2,6-dione. (FIG. 6)\nFlow cytometry: Surface antigen expression was analyzed by flow cytometry (FACScan, Coulter) after 6 days of culture. Cells were processed for double staining (30 min at 4° C.) at day 6 using FITC and PE conjugated monoclonal antibodies (mAbs). Antibodies used were: CD34-PE, CD36-FITC, CD71-FITC and Glycophorin A-PE, all from BD Pharmingen (San Diego, Calif.). After 6 days of culture, cells were washed with phosphate-buffered saline (PBS), fixed with 2% paraformaldehyde, permeabilized with cytopermeafix (BD Pharmingen) and stained with HbF-PE (BD Pharmingen, San Diego, Calif.), Hbε-FITC (Cortex Biochem, San Leandro, Calif.) mAbs and HbA-FITC (Perkin Elmer) and analyzed by flow cytometry (FACScan, Coulter or FCASAria, BD Pharmingen)."}, "CD34+ progenitor cells": {"test_system": "CD34+ progenitor cells", "assay": "Fetal hemoglobin induction in CD34+ cells with SCF and Epo, compared or combined with hydroxyurea and 5-azacytidine", "assay_type": "cell-based", "conditions": "for fetal hemoglobin expression: flow cytometry", "method": "FIG. 10 depicts the increase in expression of fetal hemoglobin due to 4-(Amino)-2-(2,6-dioxo(3-piperidyl))-isoindoline-1,3-dione over that induced by hydroxyurea or 5-azacytidine. Cells were cultured for six days in the presence of SCF (50 ng/ml) and Epo (2 U/ml), and either DMSO (control), 4-(Amino)-2-(2,6-dioxo(3-piperidyl))-isoindoline-1,3-dione (0.1, 1, 10 μM), 5-azacytidine (0.1, 1 μM; toxic at 10 μM) or hydroxyurea (0.1, 1, 10 μM).\nAs previously, CD34^+ progenitor cells were first expanded with a combination of growth factors (SCF, Flt3-L and IL-3) for 6 days, and erythroid differentiation was then induced with SCF and Epo for 6 days. During the erythroid differentiation period CD34^+ cells were cultured in the presence or absence of IMiDs™, alone or in combination with either hydroxyurea and 5-azacytidine, in order to compare the effect of IMiDs™ to these two known inducers of fetal hemoglobin synthesis. On day 6 of differentiation, the hemoglobin content of the cells was measured by flow cytometry. […] The induction of fetal hemoglobin production was, however, more pronounced with IMiD in comparison to hydroxyurea or 5-azacytidine, with a 10 fold induction in the presence of 10 μM of 4-(Amino)-2-(2,6-dioxo(3-piperidyl))-isoindoline-1,3-dione."}, "BM-CD34+ cells [3]": {"test_system": "BM-CD34+ cells", "assay": "CD34+ cell differentiation with SCF, Flt3-L, GM-CSF and TNFα; microarray gene expression", "assay_type": "cell-based", "method": "as §1\nRNA purification and microarray analysis. Total RNA was isolated from CD34^+ cells using RNAeasy (Qiagen). Affymetrix U133A gene chips were used for gene expression analysis. Briefly, double-stranded cDNA was synthesized using 5 μg of total RNA. Biotin-labeled cRNA was synthesized using MessageAmp aRNA kit (Ambion), 15 μg of cRNA was fragmented and hybridized to each array. The above procedures were done twice for each RNA sample to obtain replicate biotin-labeled probes. The results from the replicate chips were averaged for calculation of the fold differences."}, "STAT5": {"test_system": "STAT5", "assay": "Epo-induced STAT5 phosphorylation in UT-7 cells", "assay_type": "cell-based, human", "conditions": "10 μM, 45 min pre-incubation, Epo 10 U/ml for 10 minutes", "from_the_text": "To further characterize the synergy of Epo and IMiDs™ on erythroid cells, we have performed signaling experiments in a UT-7 cell line, in particular, to determine the effect if IMiDs on the expression of STAT5, which is known to be activated upon the binding Epo to the erythropoietin receptor (EpoR). UT-7 is a human leukemia cell line absolutely dependent upon erythropoietin for proliferation, and was isolated from a patient with acute myeloid leukemia (AML M7). The level of EpoR expression in these cells is around 60%.\nTo study the role of IMiDs™ in Epo signaling, we stimulated UT-7 cells with Epo in the presence or absence of 4-(Amino)-2-(2,6-dioxo(3-piperidyl))-isoindoline- 1,3-dione as follows. UT-7 cells were expended in RPMI medium with 10% FBS and GM-CSF (5 ng/ml). The cells were serum and growth factor starved overnight, then pre-incubated for 45 minutes with 10 μM of 4-(Amino)-2-(2,6-dioxo(3-piperidyl))-isoindoline-1,3-dione or DMSO control, and stimulated with Epo (10 U/ml) for 10 minutes. 4-(Amino)-2-(2,6-dioxo(3-piperidyl))-isoindoline-1,3-dione increased Epo-induced STAT5 (Tyr694) phosphorylation by 2 fold (FIG. 12). This effect was detected within 10 minutes of stimulation with Epo."}}, "data": [{"smiles": "Nc1cccc2c1CN(C1CCC(=O)NC1=O)C2=O", "note": "(stereo not shown) [3-(4-amino-1-oxo-1,3-dihydroisoindol-2-yl)-piperidine-2,6-dione]", "values": [{"measurement": "expression of fetal hemoglobin", "setting": "BM-CD34+ cells [1]", "value": "increased in a dose-dependent manner"}, {"measurement": "expression of glycophorin A", "setting": "BM-CD34+ cells [1]", "value": "increased in a dose-dependent manner"}, {"measurement": "cardiovascular and respiratory changes", "setting": "[2]; 2, 10 and 20 mg/kg by jugular vein infusion, vs vehicle", "value": "minimal at all doses"}, {"measurement": "deviations in femoral blood flow, respiratory parameters, and Qtc interval", "setting": "[2]; common to control and treated groups", "value": "not considered treatment-related"}, {"measurement": "duration of the arterial blood pressure increase", "setting": "[2]; low dose, not seen at higher doses", "value": "approximately 15 minutes"}, {"measurement": "arterial blood pressure", "setting": "[2]; low dose, small increase from 94 mmHg", "value": 101, "unit": "mmHg"}, {"measurement": "induction of hemoglobin F in erythroid precursors", "setting": "BM-CD34+ progenitors", "value": "potent inducers of hemoglobin F"}]}, {"smiles": "Nc1cccc2c1C(=O)N(C1CCC(=O)NC1=O)C2=O", "note": "(stereo not shown) [4-(Amino)-2-(2,6-dioxo(3-piperidyl))-isoindoline-1,3-dione]", "values": [{"measurement": "expression of fetal hemoglobin", "setting": "BM-CD34+ cells [1]", "value": "increased in a dose-dependent manner"}, {"measurement": "expression of glycophorin A", "setting": "BM-CD34+ cells [1]", "value": "increased in a dose-dependent manner"}, {"measurement": "induction of fetal hemoglobin production", "setting": "CD34+ progenitor cells; 10 μM, day 6 of differentiation", "value": 10, "unit": "fold"}, {"measurement": "fetal hemoglobin expression in combination with hydroxyurea", "setting": "CD34+ progenitor cells; combination with hydroxyurea, six days, SCF and Epo", "value": "striking synergy"}, {"measurement": "expression of genes encoding glycophorin B, rhesus blood group associated glycoprotein, Kell blood group precursor, EDRF/AHSP, erythroid Kruppel-like transcription factor", "setting": "BM-CD34+ cells [3]; SCF, Flt3-L, GM-CSF and TNFα", "value": "upregulated"}, {"measurement": "gene expression profile of erythroid-specific genes", "setting": "BM-CD34+ cells [3]; SCF, Flt3-L, GM-CSF and TNFα", "value": "upregulated"}, {"measurement": "increase of embryonic hemoglobin ε gene expression", "setting": "BM-CD34+ cells [3]; day 6 of CD34+ differentiation, vs DMSO", "value": 18, "unit": "fold"}, {"measurement": "adult hemoglobin (HbA) expression", "setting": "BM-CD34+ progenitors", "value": "decrease"}, {"measurement": "induction of hemoglobin F in erythroid precursors", "setting": "BM-CD34+ progenitors", "value": "potent inducers of hemoglobin F"}, {"measurement": "cells expressing fetal hemoglobin", "setting": "BM-CD34+ progenitors; 0.001-10 μM, vs DMSO", "value": "increase"}, {"measurement": "expression of glycophorin A", "setting": "BM-CD34+ progenitors; FACS", "value": "slight decrease"}, {"measurement": "increase of Epo-induced STAT5 (Tyr694) phosphorylation", "setting": "STAT5", "value": 2, "unit": "fold"}]}, {"smiles": "Nc1ncn([C@@H]2O[C@H](CO)[C@@H](O)[C@H]2O)c(=O)n1", "note": "[5-azacytidine, reference compound]", "values": [{"measurement": "toxicity to cultured CD34+ cells", "setting": "CD34+ progenitor cells; 10 μM", "value": "toxic"}, {"measurement": "fetal hemoglobin expression", "setting": "CD34+ progenitor cells; day 6 of differentiation", "value": "increased fetal hemoglobin expression"}]}, {"smiles": "NC(=O)NO", "note": "[Hydroxyurea, hydroxyurea, reference compound]", "values": [{"measurement": "fetal hemoglobin expression", "setting": "CD34+ progenitor cells; day 6 of differentiation", "value": "increased fetal hemoglobin expression"}]}]}
